According to US11427548B2 (Arvinas Operations, Inc., priority 2015, dated 2022):
Read-outs that look alike come from different tables or passages of the source.

Target: T1, Androgen Receptor (Homo sapiens, UniProt P10275)
T1 construct: endogenous in cells; host or cells: VCaP cells
T1 sequence (P10275 1-920): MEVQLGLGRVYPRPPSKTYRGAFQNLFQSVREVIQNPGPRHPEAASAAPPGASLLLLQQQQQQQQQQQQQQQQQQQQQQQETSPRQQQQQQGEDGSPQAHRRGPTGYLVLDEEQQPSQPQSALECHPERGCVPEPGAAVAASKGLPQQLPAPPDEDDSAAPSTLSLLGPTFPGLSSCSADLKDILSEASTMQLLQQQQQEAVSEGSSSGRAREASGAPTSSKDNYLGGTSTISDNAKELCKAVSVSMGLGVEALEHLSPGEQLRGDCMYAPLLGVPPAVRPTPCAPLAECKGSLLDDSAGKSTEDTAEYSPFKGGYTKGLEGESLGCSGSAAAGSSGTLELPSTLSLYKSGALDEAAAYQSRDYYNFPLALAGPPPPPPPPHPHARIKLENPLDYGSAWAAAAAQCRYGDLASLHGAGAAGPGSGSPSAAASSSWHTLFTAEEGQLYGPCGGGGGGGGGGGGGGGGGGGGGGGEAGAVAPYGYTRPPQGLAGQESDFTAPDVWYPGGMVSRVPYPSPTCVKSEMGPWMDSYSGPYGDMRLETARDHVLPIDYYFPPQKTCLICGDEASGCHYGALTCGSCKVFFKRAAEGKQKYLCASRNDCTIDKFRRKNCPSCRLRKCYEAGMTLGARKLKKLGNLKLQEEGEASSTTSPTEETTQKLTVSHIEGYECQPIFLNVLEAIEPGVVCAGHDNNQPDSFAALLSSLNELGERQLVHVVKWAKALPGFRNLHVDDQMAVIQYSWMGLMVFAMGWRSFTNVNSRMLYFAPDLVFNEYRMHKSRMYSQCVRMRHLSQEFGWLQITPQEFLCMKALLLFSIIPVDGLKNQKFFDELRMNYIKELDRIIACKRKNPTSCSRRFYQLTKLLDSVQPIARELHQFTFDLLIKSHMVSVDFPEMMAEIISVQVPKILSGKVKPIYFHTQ
Test: Androgen Receptor ELISA assay (PathScan AR ELISA) in VCaP cells: AR degradation, Dmax and DC50
Type: cell-based
How it was run: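 VCaP cells, 30,000/well, grown ≥3 days in phenol red-free RPMI with 5% charcoal-stripped FBS; compound added in 0.1% DMSO with 0.1 nM R1881, 7 half-log doses, 24 h. Lysate AR quantified by PathScan sandwich ELISA, HRP/TMB read at 450 nm, giving DC50 and Dmax.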

[1] = read-out: VCaP DC50; VCaP cells; Table 34
[2] = VCaP cells; Table 34; read-out: VCaP DC50
[3] = VCaP, VCaP cells; Table 34; read-out: VCaP Dmax (%)

Compound	Dmax (VCaP, read-out: VCaP Dmax (%))	DC50 [1]	DC50 [2]	Dmax [3]
Cc1ncsc1-c1ccc(CNC(=O)[C@H]2C[C@@H](O)CN2C(=O)[C@@H](NC(=O)[C@H](C)Oc2ccc(OCCOc3ccc(N4C(=S)N(c5ccc(C#N)c(C(F)(F)F)c5)C(=O)C4(C)C)cc3)cc2)C(C)(C)C)cc1 [Example 382]	26 to 50%	< 0.05 µM	–	–
Cc1ncoc1-c1ccc(CNC(=O)[C@@H]2C[C@@H](O)CN2C(=O)[C@@H](NC(=O)COCCCCOc2ccc(Oc3ccc(N4C(=S)N(c5cnc(C#N)c(C(F)(F)F)c5)C(=O)C4(C)C)cc3)cc2)C(C)(C)C)cc1 [Example 383]	–	–	< 0.05 µM	> 71%
Cc1ncsc1-c1ccc(CNC(=O)[C@@H]2C[C@@H](O)CN2C(=O)[C@@H](NC(=O)COCCCCOc2ccc(Oc3ccc(N4C(=S)N(c5cnc(C#N)c(C(F)(F)F)c5)C(=O)C4(C)C)cc3)cc2)C(C)(C)C)cc1 [Example 384]	–	–	< 0.05 µM	> 71%
Cc1ncoc1-c1ccc(CNC(=O)[C@@H]2C[C@@H](O)CN2C(=O)[C@@H](NC(=O)COCCCOc2ccc(Oc3ccc(N4C(=S)N(c5cnc(C#N)c(C(F)(F)F)c5)C(=O)C4(C)C)cc3)cc2)C(C)(C)C)cc1 [Example 386]	–	–	< 0.05 µM	> 71%
Cc1ncsc1-c1ccc(CNC(=O)[C@@H]2C[C@@H](O)CN2C(=O)[C@@H](NC(=O)COCCCOc2ccc(C(=O)N[C@H]3C(C)(C)[C@H](Oc4ccc(C#N)c(Cl)c4)C3(C)C)cc2)C(C)(C)C)cc1 [Example 387]	–	–	–	< 25%
Cc1ncsc1-c1ccc([C@H](C)NC(=O)[C@@H]2C[C@@H](O)CN2C(=O)[C@@H](NC(=O)COCC#CCOc2ccc(C(=O)N[C@H]3C(C)(C)[C@H](Oc4ccc(C#N)c(Cl)c4)C3(C)C)cc2)C(C)(C)C)cc1 [Example 388]	–	–	< 0.05 µM	> 71%
Cc1ncoc1-c1ccc([C@H](C)NC(=O)[C@@H]2C[C@@H](O)CN2C(=O)[C@@H](NC(=O)COCCCCNc2ccc(-c3ccc(N4C(=S)N(c5cnc(C#N)c(C(F)(F)F)c5)C(=O)C4(C)C)cc3)cc2)C(C)(C)C)cc1 [Example 390]	–	–	< 0.05 µM	51 to 70%
Cc1ncsc1-c1ccc(CNC(=O)[C@@H]2C[C@@H](O)CN2C(=O)[C@@H](NC(=O)COCCCCNc2ccc(-c3ccc(N4C(=S)N(c5cnc(C#N)c(C(F)(F)F)c5)C(=O)C4(C)C)cc3)cc2)C(C)(C)C)cc1 [Example 391]	–	–	< 0.05 µM	51 to 70%
Cc1ncsc1-c1ccc(CNC(=O)[C@@H]2C[C@@H](O)CN2C(=O)[C@@H](NC(=O)CNC(=O)CCCOc2ccc(C(=O)N[C@H]3C(C)(C)[C@H](Oc4ccc(C#N)c(Cl)c4)C3(C)C)cc2)C(C)(C)C)cc1 [Example 393]	–	–	< 0.05 µM	51 to 70%
Cc1ncsc1-c1ccc(CNC(=O)[C@@H]2C[C@@H](O)CN2C(=O)C(C(C)C)n2cccc(OCCCCOc3ccc(-c4ccc(N5C(=S)N(c6ccc(C#N)c(C(F)(F)F)c6)C(=O)C5(C)C)cc4)cc3)c2=O)cc1 (stereo partly drawn) [Example 395]	< 25%	–	–	–
Cc1ncsc1-c1ccc(CNC(=O)[C@@H]2C[C@@H](O)CN2C(=O)[C@@H](NC(=O)COCCCCNC(=O)c2ccc(C(=O)N[C@H]3C(C)(C)[C@H](Oc4ccc(C#N)c(Cl)c4)C3(C)C)cc2)C(C)(C)C)cc1 [Example 398]	–	–	< 0.05 µM	26 to 50%
Cc1ncoc1-c1ccc(CNC(=O)[C@@H]2C[C@@H](O)CN2C(=O)[C@@H](NC(=O)COCCCCOc2ccc(-c3ccc(N4C(=S)N(c5ccc(C#N)c(C(F)(F)F)c5)C(=O)C4(C)C)cc3F)cc2)C(C)(C)C)cc1 [Example 399]	> 71%	< 0.05 µM	–	–
Cc1ncsc1-c1ccc(CNC(=O)[C@@H]2C[C@@H](O)CN2C(=O)[C@@H](NC(=O)COCCCCOc2ccc(-c3ccc(N4C(=S)N(c5ccc(C#N)c(C(F)(F)F)c5)C(=O)C4(C)C)cc3F)cc2)C(C)(C)C)cc1 [Example 400]	> 71%	< 0.05 µM	–	–
Cc1ncsc1-c1ccc([C@H](C)NC(=O)[C@@H]2C[C@@H](O)CN2C(=O)[C@@H](NC(=O)COCCCCOc2ccc(-c3ccc(N4C(=S)N(c5ccc(C#N)c(C(F)(F)F)c5)C(=O)C4(C)C)cn3)cn2)C(C)(C)C)cc1 [Example 401]	> 71%	< 0.05 µM	–	–
Cc1ncoc1-c1ccc(CNC(=O)[C@@H]2C[C@@H](O)CN2C(=O)[C@@H](NC(=O)COCCCNC(=O)c2ccc(-c3ccc(N4C(=S)N(c5ccc(C#N)c(C(F)(F)F)c5)C(=O)C4(C)C)cc3)cc2)C(C)(C)C)cc1 [Example 402]	51 to 70%	< 0.05 µM	–	–
Cc1ncsc1-c1ccc(CNC(=O)[C@@H]2C[C@@H](O)CN2C(=O)[C@@H](NC(=O)COCCCCOc2ccc(-c3ccc(N4C(=S)N(c5ccc(C#N)c(C(F)(F)F)c5)C(=O)C4(C)C)cc3)c(O)c2)C(C)(C)C)cc1 [Example 403]	51 to 70%	< 0.05 µM	–	–
Cc1ncsc1-c1ccc(CNC(=O)[C@@H]2C[C@@H](O)CN2C(=O)[C@@H](NC(=O)COCCC2CCN(c3ccc(C(=O)N[C@H]4C(C)(C)[C@H](Oc5ccc(C#N)c(Cl)c5)C4(C)C)cc3)CC2)C(C)(C)C)cc1 [Example 404]	–	–	< 0.05 µM	> 71%
Cc1ncsc1-c1ccc(CNC(=O)[C@@H]2C[C@@H](O)CN2C(=O)[C@@H](NC(=O)CO[C@H](C)c2ccc(Oc3ccc(C(=O)N[C@H]4C(C)(C)[C@H](Oc5ccc(C#N)c(Cl)c5)C4(C)C)cc3)cc2)C(C)(C)C)cc1 [Example 405]	–	–	< 0.05 µM	> 71%
Cc1ncsc1-c1ccc(CNC(=O)[C@@H]2C[C@@H](O)CN2C(=O)[C@@H](NC(=O)CO[C@@H](C)c2ccc(Oc3ccc(C(=O)N[C@H]4C(C)(C)[C@H](Oc5ccc(C#N)c(Cl)c5)C4(C)C)cc3)cc2)C(C)(C)C)cc1 [Example 406]	–	–	< 0.05 µM	> 71%
CC(C)(C)[C@H](NC(=O)COCCCCOc1ccc(C(=O)N[C@H]2C(C)(C)[C@H](Oc3ccc(C#N)c(Cl)c3)C2(C)C)cc1)C(=O)N1C[C@H](O)C[C@H]1C(=O)NCc1ccc(-c2ccccc2)cc1 [Example 407]	–	–	< 0.05 µM	51 to 70%
Cc1ncsc1-c1ccc(CNC(=O)[C@@H]2C[C@@H](O)CN2C(=O)[C@@H](NC(=O)COCCCCOc2ccc(-c3ccc(N4C(=S)N(c5ccc(C#N)c(C(F)(F)F)c5)C(=O)C4(C)C)cc3)cc2O)C(C)(C)C)cc1 [Example 408]	51 to 70%	< 0.05 µM	–	–
Cc1ncsc1-c1ccc(CNC(=O)[C@@H]2C[C@@H](O)CN2C(=O)[C@@H](NC(=O)COCCCNC(=O)c2ccc(C(=O)N[C@H]3C(C)(C)[C@H](Oc4ccc(C#N)c(Cl)c4)C3(C)C)cc2)C(C)(C)C)cc1 [Example 409]	–	–	< 0.05 µM	51 to 70%
Cc1ncsc1-c1ccc(CNC(=O)[C@@H]2C[C@@H](O)CN2C(=O)[C@@H](NC(=O)COCC2CCN(c3ccc(C(=O)N[C@H]4C(C)(C)[C@H](Oc5ccc(C#N)c(Cl)c5)C4(C)C)cc3)CC2)C(C)(C)C)cc1 [Example 410]	–	–	< 0.05 µM	> 71%
Cc1ncoc1-c1ccc([C@H](C)NC(=O)[C@@H]2C[C@@H](O)CN2C(=O)[C@@H](NC(=O)COCCCCNc2ccc(C(=O)N[C@H]3C(C)(C)[C@H](Oc4ccc(C#N)c(Cl)c4)C3(C)C)cc2)C(C)(C)C)cc1 [Example 411]	–	–	< 0.05 µM	> 71%
CC(C)(C)[C@H](NC(=O)COCCCCNc1ccc(C(=O)N[C@H]2C(C)(C)[C@H](Oc3ccc(C#N)c(Cl)c3)C2(C)C)cc1)C(=O)N1C[C@H](O)C[C@H]1C(=O)NCc1ccc(-c2scnc2C2CC2)cc1 [Example 412]	–	–	< 0.05 µM	51 to 70%
